Data from US6369035B1, “3,6-hemiketals from the class of 9A-azalides” (Pliva, farmaceutska industrja, dionicko …, priority 1997, dated 2002).
In brackets after ≈: the same amount, converted by molar mass. Where two headings read alike, the source gives them in different places. Values belong to the compound of their own block, whether it stands above or below them.

Key:
B. cereus ATCC 11778 = test: Antibacterial in vitro activity, MIC by double dilution, standard strains; format: cell-based; conditions: 37° C., 18 hours
Experimental: (§1) Antibacterial in vitro activity of the novel compounds of the general formula (I) and their pharmaceutically acceptable addition salts with inorganic or organic acids on a series of standard test-microorganisms was determined in a Mueller-Hinton medium (Difco-Laboratories, Detroit, Mich.) by a conventional method of double dilution in accordance with recommendations of NCCLS (The National Committee for Clinical Laboratory Standards). Each test microorganism was inoculated to the final inoculum size of 5×10^5 cfu/ml and the incubation was carried out in an […] manner at 37° C. during 18 hours. The MIC in the liquid medium was defined as the lowest concentration of an antibacterial agent inhibiting visible growth in microdilutional containers. Control organisms were obtained from ATCC (The American Type Culture Collection). All standards were identified by a standard procedure and were storaged at −70° C.

[1] = system: Bacillus subtilis ATCC 6633; test: as above; format: cell-based; conditions: 37° C., 18 hours
Experimental: as §1

[2] = system: Escherichia coli ATCC 10536; test: as above; format: cell-based; conditions: 37° C., 18 hours
Experimental: as §1

M. luteus ATCC 9341 = test: as above; format: cell-based; conditions: 37° C., 18 hours
Experimental: as §1

[3] = system: Micrococcus flavus ATCC 10240; test: as above; format: cell-based; conditions: 37° C., 18 hours
Experimental: as §1

S. aureus ATCC 29213 = test: as above; format: cell-based; conditions: 37° C., 18 hours
Experimental: as §1

[4] = system: S. eperidermidis ATCC 12228; test: as above; format: cell-based; conditions: Mueller-Hinton medium, 37° C., 18 hours
Experimental: as §1

[5] = system: Staphylococcus aureus ATCC 6538 P; test: as above; format: cell-based; conditions: 37° C., 18 hours
Experimental: as §1

[6] = system: Streptococcus faecalis ATCC 8043; test: as above; format: cell-based; conditions: 37° C., 18 hours
Experimental: as §1

[7] = system: Enterococcus sp. clinical isolates (35); test: Antibacterial in vitro activity, MIC, clinical isolates; format: cell-based; conditions: 35 clinical isolates
Experimental: as §1

[8] = system: Haemophilus influenzae clinical isolates (40); test: as above; format: cell-based; conditions: 40 clinical isolates
Experimental: as §1

[9] = system: S. epidermidis clinical isolates (20); test: as above; format: cell-based; conditions: 20 clinical isolates
Experimental: as §1

[10] = system: Staph. aureus. clinical isolates (77); test: as above; format: cell-based; conditions: 77 clinical isolates
Experimental: as §1

[11] = system: Streptococcus pneumoniae clinical isolates (25); test: as above; format: cell-based; conditions: 25 clinical isolates
Experimental: as §1

[12] = rat, in vivo, po, 20 mg/kg

Compound: CC[C@H]1OC(=O)[C@H](C)[C@@H](O[C@H]2C[C@@](C)(OC)[C@@H](O)[C@H](C)O2)[C@H](C)[C@@H](O[C@@H]2O[C@H](C)C[C@H](N(C)C)[C@H]2O)[C@](C)(O)C[C@@H](C)CN(C)[C@H](C)[C@@H](O)[C@]1(C)OC [12-O-Methyl-azithromycin]
MIC (B. cereus ATCC 11778; Mueller-Hinton medium): 0.25 µg/mL (≈ 0.328 µM)
MIC ([1]; Mueller-Hinton medium): 1 µg/mL (≈ 1.31 µM)
MIC ([2]; Mueller-Hinton medium): 0.5 µg/mL (≈ 0.655 µM)
MIC (M. luteus ATCC 9341; Mueller-Hinton medium): 0.03 µg/mL (≈ 0.0393 µM)
MIC ([3]; Mueller-Hinton medium): 0.12 µg/mL (≈ 0.157 µM)
MIC (S. aureus ATCC 29213; Mueller-Hinton medium): 0.25 µg/mL (≈ 0.328 µM)
MIC [4]: 0.03 µg/mL (≈ 0.0393 µM)
MIC ([5]; Mueller-Hinton medium): 0.25 µg/mL (≈ 0.328 µM)
MIC ([6]; Mueller-Hinton medium): 0.25 µg/mL (≈ 0.328 µM)
MIC 50% [7]: 0.5 µg/mL (≈ 0.655 µM)
MIC 90% [7]: 8 µg/mL (≈ 10.5 µM)
MIC Range [7]: 0.12 to 8 µg/mL
MIC 50% [8]: 0.12 µg/mL (≈ 0.157 µM)
MIC 90% [8]: 0.25 µg/mL (≈ 0.328 µM)
MIC Range [8]: 0.06 to 0.5 µg/mL
MIC 50% [9]: 0.25 µg/mL (≈ 0.328 µM)
MIC 90% [9]: 4 µg/mL (≈ 5.24 µM)
MIC Range [9]: 0.12 to 8 µg/mL
MIC 50% [10]: 0.25 µg/mL (≈ 0.328 µM)
MIC 90% [10]: 1 µg/mL (≈ 1.31 µM)
MIC Range [10]: 0.12 to 2 µg/mL
MIC 50% [11]: 0.03 µg/mL (≈ 0.0393 µM)
MIC 90% [11]: 0.12 µg/mL (≈ 0.157 µM)
MIC Range [11]: 0.03 to 0.12 µg/mL
Cmax (maximum substance concentration in serum) [12]: 248.8 ng/mL
absorption in the serum [12]: very fast absorbed
half-life [12]: 5.2 h
time at which the maximum substance concentration was achieved [12]: 2 h
time of secondary maximum after the application [12]: 4 h
total AUC [12]: 1993.4 ng·h/mL

MIC (B. cereus ATCC 11778; Bacillus cereus, ATCC11778, Mueller-Hinton medium, read-out: MIC): 1 µg/mL (≈ 1.34 µM)
MIC ([1]; ATCC6633, Mueller-Hinton medium, read-out: MIC): 4 µg/mL (≈ 5.34 µM)
MIC ([2]; ATCC10536, Mueller-Hinton medium, read-out: MIC): 1 µg/mL (≈ 1.34 µM)
MIC (M. luteus ATCC 9341; Micrococcus luteus, ATCC9341, Mueller-Hinton medium, read-out: MIC): 0.06 µg/mL (≈ 0.0801 µM)
MIC ([3]; ATCC10240, Mueller-Hinton medium, read-out: MIC): 0.5 µg/mL (≈ 0.668 µM)
MIC (S. aureus ATCC 29213; Staphylococcus aureus, ATCC29213, Mueller-Hinton medium, read-out: MIC): 0.25 µg/mL (≈ 0.334 µM)
MIC ([4]; read-out: MIC): 0.5 µg/mL (≈ 0.668 µM)
MIC ([5]; ATCC6538, Mueller-Hinton medium, read-out: MIC): 1 µg/mL (≈ 1.34 µM)
MIC ([6]; Enterococcus faecalis, ATCC8043, Mueller-Hinton medium, read-out: MIC): 0.5 µg/mL (≈ 0.668 µM)
MIC50 [7]: 1 µg/mL (≈ 1.34 µM)
MIC90 [7]: 16 µg/mL (≈ 21.4 µM)
MIC Range [7]: 0.25 to 16 µg/mL
MIC50 [8]: 0.25 µg/mL (≈ 0.334 µM)
MIC90 [8]: 0.5 µg/mL (≈ 0.668 µM)
MIC Range [8]: 0.12 to 0.5 µg/mL
MIC Range [9]: 0.25 to 16 µg/mL
MIC50 ([9]; Staphylococcus epidermidis): 0.25 µg/mL (≈ 0.334 µM)
MIC90 ([9]; Staphylococcus epidermidis): 8 µg/mL (≈ 10.7 µM)
MIC Range [10]: 0.25 to 8 µg/mL
MIC50 ([10]; Staphylococcus aureus): 1 µg/mL (≈ 1.34 µM)
MIC90 ([10]; Staphylococcus aureus): 4 µg/mL (≈ 5.34 µM)
MIC50 [11]: 0.05 µg/mL (≈ 0.0668 µM)
MIC90 [11]: 0.12 µg/mL (≈ 0.16 µM)
MIC Range [11]: 0.03 to 0.25 µg/mL
Compound: CC[C@H]1OC(=O)[C@H](C)[C@@H](O[C@H]2C[C@@](C)(OC)[C@@H](O)[C@H](C)O2)[C@H](C)[C@@H](O[C@@H]2O[C@H](C)C[C@H](N(C)C)[C@H]2O)[C@](C)(O)C[C@@H](C)CN(C)[C@H](C)[C@@H](O)[C@]1(C)O [Azithromycin, 9-deoxo-9a-methyl-9a-aza-9a-homoerythromycin, reference compound]
